Data taken from patent US8536168B2 (Novartis AG, priority 2007, dated 2013).
Like-named read-outs stand apart in the source and are kept apart here.

Legend:
Gli-luciferase activity = experiment: Reporter gene assay (RGA) in TMHh12 cells, antagonism of Gli-luciferase activity in the presence of a Smo agonist; format: cell-based
Method: Activity of the compounds was evaluated using a reporter gene assay (RGA) in TMHh12 cells.

[1] = target: mouse Smoothened receptor (Mus musculus, UniProt P56726); experiment: Smo binding assay, displacement of radio-labeled smoothened agonist, filter binding format (mouse); conditions: displacement of small molecule agonist of Smoothened, read-out: Mouse Smo bdg., IC50
mouse Smoothened receptor, sequence (P56726 33-793): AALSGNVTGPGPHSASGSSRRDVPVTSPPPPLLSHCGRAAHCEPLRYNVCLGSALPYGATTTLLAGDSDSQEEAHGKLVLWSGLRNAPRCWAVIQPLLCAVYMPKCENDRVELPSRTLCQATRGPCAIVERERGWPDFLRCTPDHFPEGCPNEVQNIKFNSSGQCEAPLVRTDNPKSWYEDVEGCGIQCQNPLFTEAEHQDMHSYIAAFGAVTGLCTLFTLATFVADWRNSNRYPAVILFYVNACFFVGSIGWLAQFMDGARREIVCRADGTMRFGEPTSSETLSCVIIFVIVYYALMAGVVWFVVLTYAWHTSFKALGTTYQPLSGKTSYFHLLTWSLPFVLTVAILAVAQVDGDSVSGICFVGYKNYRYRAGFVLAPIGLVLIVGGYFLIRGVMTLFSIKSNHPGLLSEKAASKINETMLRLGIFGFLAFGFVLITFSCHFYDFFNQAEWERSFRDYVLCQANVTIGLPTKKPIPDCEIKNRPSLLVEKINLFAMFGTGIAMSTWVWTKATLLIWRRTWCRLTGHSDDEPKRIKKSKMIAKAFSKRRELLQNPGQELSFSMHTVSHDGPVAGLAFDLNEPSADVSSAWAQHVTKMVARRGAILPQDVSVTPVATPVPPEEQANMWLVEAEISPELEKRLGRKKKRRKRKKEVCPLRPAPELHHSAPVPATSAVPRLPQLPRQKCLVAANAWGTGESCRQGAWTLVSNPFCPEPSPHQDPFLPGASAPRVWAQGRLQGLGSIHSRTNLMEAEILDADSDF
Source text: A Smo binding assay was developed using radio-labeled smoothened agonist for compound competition.

[2] = target: human Smoothened receptor (Homo sapiens, UniProt Q99835); experiment: Smo binding assay, displacement of radio-labeled smoothened agonist, filter binding format (human); conditions: displacement of small molecule agonist of Smoothened, read-out: Human Smo bdg., IC50
human Smoothened receptor, sequence (Q99835 28-787): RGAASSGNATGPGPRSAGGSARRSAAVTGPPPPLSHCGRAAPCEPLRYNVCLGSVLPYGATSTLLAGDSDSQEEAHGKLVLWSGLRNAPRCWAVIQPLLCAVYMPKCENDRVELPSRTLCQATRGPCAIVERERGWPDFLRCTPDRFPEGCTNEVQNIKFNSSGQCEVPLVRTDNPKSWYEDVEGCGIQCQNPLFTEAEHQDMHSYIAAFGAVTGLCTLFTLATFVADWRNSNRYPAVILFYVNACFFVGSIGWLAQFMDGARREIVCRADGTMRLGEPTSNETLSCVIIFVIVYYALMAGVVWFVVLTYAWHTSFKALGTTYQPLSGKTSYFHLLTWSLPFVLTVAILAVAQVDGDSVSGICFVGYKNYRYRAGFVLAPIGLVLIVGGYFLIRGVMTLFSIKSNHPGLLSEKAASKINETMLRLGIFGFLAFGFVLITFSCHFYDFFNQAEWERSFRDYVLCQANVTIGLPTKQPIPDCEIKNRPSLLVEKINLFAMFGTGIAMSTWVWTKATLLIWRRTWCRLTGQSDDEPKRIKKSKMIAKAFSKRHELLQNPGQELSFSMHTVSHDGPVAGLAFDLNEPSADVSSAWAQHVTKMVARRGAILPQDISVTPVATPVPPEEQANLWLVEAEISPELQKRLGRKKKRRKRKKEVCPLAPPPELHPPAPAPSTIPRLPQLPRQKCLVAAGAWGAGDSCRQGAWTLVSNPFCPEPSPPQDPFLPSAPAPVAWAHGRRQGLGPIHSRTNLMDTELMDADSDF
Source text: A Smo binding assay was developed using radio-labeled smoothened agonist for compound competition. Table 9 lists the IC50 for displacement of a small molecule agonist of Smoothened determined in a filter binding format for the mouse and human Smoothened receptor.

[3] = 25 nM small molecule Smo agonist, read-out: RGA (25 nM Smo agonist) IC50
[4] = read-out: RGA (1 nM Smo agonist) IC50, 1 nM small molecule Smo agonist

IC50 (Gli-luciferase activity; [3]) [nM]	IC50 (Gli-luciferase activity; [4]) [nM]	IC50 [1] [nM]	IC50 [2] [nM]	SMILES
100 to 1000	< 100	100 to 1000	100 to 1000	CN(C)C(=O)OCc1ccc(N2CCN(c3nnc(Cc4ccccc4)c4ccccc34)CC2)nc1 [Example 160, Dimethyl-carbamic acid 6-[4-(4-benzyl-phthalazin-1-yl)-piperazin-1-yl]-pyridin-3-ylmethyl ester]
< 100	< 100	< 100	< 100	CC(C)(O)Cc1ccc(N2CCN(c3nnc(Cc4ccccc4)c4ccccc34)CC2)nc1 [Example 172, 1-{6-[4-(4-Benzyl-phthalazin-1-yl)-piperazin-1-yl]-pyridin-3-yl}-2-methyl-propan-2-ol]
< 100	< 100	< 100	< 100	CC1(c2ccc(N3CCN(c4nnc(Cc5ccccc5)c5ccccc45)CC3)nc2)OCCO1 [Example 164, 1-Benzyl-4-(4-(5-(2-methyl-1,3-dioxolan-2-yl)pyridin-2-yl)piperazin-1-yl)phthalazine]
100 to 1000	< 100	< 100	< 100	CC(C)(O)c1cnc(N2CCN(c3nnc(Cc4ccccc4)c4ccccc34)CC2)nc1 [Example 151]
100 to 1000	100 to 1000	< 100	100 to 1000	COC(=O)CNC(=O)c1ccc(N2CCN(c3nnc(Cc4ccccc4)c4ccccc34)CC2)nc1 [Example 54r]
1000 to 10000	100 to 1000	100 to 1000	100 to 1000	CCOC(=O)c1ccc(N2CCN(c3nnc(CN4CCOCC4)c4ccccc34)CC2)nc1 [Example 203, 6-[4-(4-Morpholin-4-ylmethyl-phthalazin-1-yl)-piperazin-1-yl]-nicotinic acid ethyl ester]
< 100	< 100	< 100	< 100	CC(=O)NC(C)(C)c1ccc(N2CCN(c3nnc(Cc4ccccc4)c4ccccc34)CC2)nc1 [Example 162, N-(1-{6-[4-(4-Benzyl-phthalazin-1-yl)-piperazin-1-yl]-pyridin-3-yl}-1-methyl-ethyl)-acetamide]
1000 to 10000	< 100	< 100	100 to 1000	N#Cc1ccc(N2CCN(c3nnc(Cc4cccc(C(F)(F)F)c4)c4ccccc34)CC2)nc1 [Example 56, 6-{4-[4-(3-Trifluoromethyl-benzyl)-phthalazin-1-yl]-piperazin-1-yl}-nicotinonitrile]
1000 to 10000	100 to 1000	100 to 1000	1000 to 10000	CC(=O)Nc1ccc(C2CCN(c3nnc(Cc4ccccc4)c4ccccc34)CC2)cc1 [Example 129]
< 100	< 100	< 100	< 100	CCN(CCO)C(=O)c1ccc(N2CCN(c3nnc(Cc4ccccc4)c4ccccc34)CC2)nc1 [Example 54d]
100 to 1000	< 100	100 to 1000	100 to 1000	O=C(c1ccc(N2CCN(c3nnc(Cc4ccccc4)c4ccccc34)CC2)nc1)N1CC[S+]([O-])C1 (centres unmarked) [Example 54q]
100 to 1000	< 100	< 100	< 100	c1ccc(Cc2nnc(N3CCC(c4nc5ccccc5[nH]4)CC3)c3ccccc23)cc1 [Example 114]
1000 to 10000	< 100	100 to 1000	100 to 1000	Cc1cc(Cc2ccc(F)cc2)nnc1N1CCN(c2ccc(C#N)cn2)CC1 [Example 84]
100 to 1000	< 100	< 100	100 to 1000	FC(F)(F)c1c[nH]c(C2CCN(c3nnc(Cc4ccccc4)c4ccccc34)CC2)n1 [Example 112]
1000 to 10000	1000 to 10000	1000 to 10000	1000 to 10000	O=C(NC1CNC1)c1ccc(N2CCN(c3nnc(Cc4ccccc4)c4ccccc34)CC2)nc1 [Example 54y]
< 100	< 100	< 100	< 100	C[C@H]1CN(c2ccc(C(C)(C)O)cn2)CCN1c1nnc(Cc2ccccc2Cl)c2ccccc12 [Example 196]
< 100	< 100	< 100	< 100	CC(C)(O)c1ccc(N2CCN(c3nnc(Cc4ccc(F)cc4F)c4ccccc34)CC2)nc1 [Example 193]
100 to 1000	< 100	< 100	< 100	CCOC(=O)c1ccc(N2CCN(c3nnc(Cc4ccccc4)c4ccccc34)C[C@H]2C)nc1 [Example 144, 6-[(R)-4-(4-Benzyl-phthalazin-1-yl)-2-methyl-piperazin-1-yl]-nicotinic acid ethyl ester]
100 to 1000	< 100	< 100	< 100	N#Cc1ccc(N2CCN(c3nnc(Cc4ccc(F)cc4)c4c3CCC4)CC2)nc1 [Example 93c, 6-{4-[4-(4-Fluoro-benzyl)-6,7-dihydro-5H-cyclopenta[d]pyridazin-1-yl]-piperazin-1-yl}-nicotinonitrile]
100 to 1000	100 to 1000	< 100	< 100	OC(c1ccc(N2CCN(c3nnc(Cc4ccccc4)c4ccccc34)CC2)nc1)C1CC1 (centres unmarked) [Example 219]

IC50 (Gli-luciferase activity; [3]) [nM]	IC50 (Gli-luciferase activity; [4]) [nM]	IC50 [1] [nM]	IC50 [2] [nM]	SMILES
100 to 1000	< 100	< 100	< 100	CN(CCO)C(=O)c1ccc(N2CCN(c3nnc(Cc4ccccc4Cl)c4ccccc34)CC2)nc1 [Example 200]
–	100 to 1000	< 100	< 100	Cc1cc(N2CCN(c3ccc(C(F)(F)F)cn3)CC2)nnc1Cc1ccccc1 [Example 89]
1000 to 10000	1000 to 10000	1000 to 10000	1000 to 10000	N#Cc1ccc(C2CCN(c3nnc(Cc4ccccc4)c4ccccc34)CC2)cc1 [Example 116]
100 to 1000	< 100	< 100	< 100	N#Cc1ccc(N2CCN(c3nnc(Cc4ccc(Br)cc4)c4ccccc34)CC2)nc1 [Example 66]
1000 to 10000	100 to 1000	1000 to 10000	1000 to 10000	Cc1cc(Cc2ccccc2)nnc1N1CCN(c2ccc(C#N)cn2)CC1 [Example 86]
100 to 1000	100 to 1000	100 to 1000	100 to 1000	N#Cc1ccc(N2CCN(c3nnc(Cc4cccc(F)c4)c4ccccc34)CC2)nc1 [Example 182]
100 to 1000	< 100	< 100	100 to 1000	CC(C)(O)CNC(=O)c1ccc(N2CCN(c3nnc(Cc4ccccc4)c4ccccc34)CC2)nc1 [Example 54u]
10000 to 40000	1000 to 10000	1000 to 10000	1000 to 10000	O=C(c1ccc(C(F)(F)F)cc1)N1CCC(c2cn(Cc3ccccc3)c3ccccc23)CC1 [Example 105]
100 to 1000	< 100	< 100	100 to 1000	COCCC(=O)NC(C)(C)c1ccc(N2CCN(c3nnc(Cc4ccccc4)c4ccccc34)CC2)nc1 [Example 122]
< 100	< 100	< 100	< 100	c1ccc(Cc2nnc(N3CCN(c4ccc(CN5CCOCC5)cn4)CC3)c3ccccc23)cc1 [Example 222, 1-Benzyl-4-[4-(5-morpholin-4-ylmethyl-pyridin-2-yl)-piperazin-1-yl]-phthalazine]
100 to 1000	< 100	100 to 1000	100 to 1000	NC(=O)c1ccc(N2CCN(c3nnc(Cc4ccccc4)c4ccccc34)CC2)nc1 [Example 53]
100 to 1000	< 100	< 100	100 to 1000	N#Cc1ccc(N2CCN(c3nnc(Cc4ccc(F)cc4)c4ccccc34)CC2)nc1 [Example 181]
100 to 1000	< 100	100 to 1000	100 to 1000	O=C(c1ccc(N2CCN(c3nnc(Cc4ccccc4)c4ccccc34)CC2)nc1)N1CC(O)C1 [Example 54z]
–	100 to 1000	100 to 1000	100 to 1000	Cc1cc(N2CCN(c3ccc(C#N)cn3)CC2)nnc1Cc1ccccc1 [Example 87]
100 to 1000	< 100	< 100	< 100	FC(F)(F)c1ccc(N2CCN(c3nnc(Cc4ccccc4)c4ccccc34)CC2)nc1 [Example 2]
< 100	< 100	< 100	< 100	CC(C)(O)c1ccc(N2CCN(c3nnc(Cc4ccccc4)c4ccccc34)CC2)nc1 [Example 54a, 2-{6-[4-(4-Benzyl-phthalazin-1-yl)-piperazin-1-yl]-pyridin-3-yl}-propan-2-ol]
100 to 1000	< 100	< 100	< 100	NS(=O)(=O)c1ccc(N2CCN(c3nnc(Cc4ccccc4)c4ccccc34)CC2)nc1 [Example 132]
100 to 1000	100 to 1000	< 100	< 100	CCOC(=O)c1ccc(N2CCN(c3nnc(Cc4ccc(Cl)cc4Cl)c4ccccc34)CC2)nc1 [Example 186]
100 to 1000	< 100	< 100	< 100	OC1(c2ccc(N3CCN(c4nnc(Cc5ccccc5)c5ccccc45)CC3)nc2)CC1 [Example 135]
100 to 1000	< 100	< 100	< 100	CC(O)c1ccc(N2CCN(c3nnc(Cc4ccccc4)c4ccccc34)CC2)nc1 (centres unmarked) [Example 163, 1-{6-[4-(4-Benzyl-phthalazin-1-yl)-piperazin-1-yl]-pyridin-3-yl}-ethanol]
